target: T1, human FSH receptor (Homo sapiens, UniProt P23945); test: Agonistic activity at the human FSH receptor expressed in CHO cells (CRE-luciferase reporter); format: cell-based; details: CHO cells stably transfected with human FSH receptor and CRE/luciferase reporter; 4 hours incubation; pEC50 is -log EC50; read-out: hFSHRago (CHO luc) pEC50 (converted)
T1 construct: expressed in transfected cells; host or cells: CHO (Chinese Hamster Ovary) cells, stably transfected, cotransfected with CRE-luciferase reporter
T1 sequence (P23945 18-695): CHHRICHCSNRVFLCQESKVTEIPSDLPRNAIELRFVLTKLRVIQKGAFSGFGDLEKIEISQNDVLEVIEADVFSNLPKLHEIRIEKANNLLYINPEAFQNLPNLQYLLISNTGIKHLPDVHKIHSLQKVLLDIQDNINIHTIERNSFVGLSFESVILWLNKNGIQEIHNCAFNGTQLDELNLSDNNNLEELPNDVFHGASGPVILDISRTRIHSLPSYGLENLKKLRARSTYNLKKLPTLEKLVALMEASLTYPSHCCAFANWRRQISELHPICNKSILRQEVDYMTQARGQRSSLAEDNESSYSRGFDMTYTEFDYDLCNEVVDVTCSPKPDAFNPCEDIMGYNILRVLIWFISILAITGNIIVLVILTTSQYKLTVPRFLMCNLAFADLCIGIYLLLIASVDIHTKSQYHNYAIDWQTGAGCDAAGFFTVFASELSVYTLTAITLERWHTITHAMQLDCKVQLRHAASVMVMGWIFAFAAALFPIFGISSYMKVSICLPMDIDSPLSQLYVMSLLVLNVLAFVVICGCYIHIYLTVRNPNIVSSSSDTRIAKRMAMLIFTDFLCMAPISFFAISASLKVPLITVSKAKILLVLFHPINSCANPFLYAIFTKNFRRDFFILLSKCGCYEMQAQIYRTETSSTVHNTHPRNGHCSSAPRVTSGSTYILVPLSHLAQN
Text: The term EC50 means the concentration of the test compound that elicits half-maximal (50%) stimulation compared to the compound's maximally attainable effect. pEC50 is the negative log of EC50. The values can be determined e.g. in a cell line transfected with a FSH receptor gene and cotransfected with a cAMP responsive element/promoter directing the expression of a reporter gene. For the determination a software program such as MathIQ (version 2.0, ID Business Solutions Limited) can be used.
Agonistic activity of the compounds at the human FSH receptor was determined in Chinese Hamster Ovary (CHO) cells stably transfected with the human FSH receptor and cotransfected with a cAMP responsive element (CRE)/promotor directing the expression of a firefly luciferase reporter gene. Binding of the compounds to the Gs protein-coupled FSH receptor will result in an increase of cAMP, which in turn will induce an increased transactivation of the luciferase reporter. Cells (7,500 cells/well of a 384 well plate) were incubated in Dulbecco' minimal essential F12 modified medium (Invitrogen), supplemented with 1 μg/ml bovine insulin, 5 μg/ml human apo-transferrin, 80 U/ml penicillin G and 80 μg/ml streptomycin with the test compounds (concentration between 0.0316 nM and 10.0 μM) in duplicate in a humidified atmosphere (95%) at 5-7% CO2 and 37° C. The final concentration of DMSO was 1%. After 4 hours of incubation, plates were allowed to adjust to room temperature for 1 hour. Then, Luclite (PerkinElmer) solution was added to the wells and cells were allowed to lyse for at least 1 hour at room temperature. Subsequently, luciferase activity was measured in a luminescence counter. The signal is expressed as counts per second (cps). The EC50 (concentration of the test compound that elicits half-maximal (50%) luciferase stimulation compared to the compound's maximally attainable effect) and efficacy values (maximal effect of the test compound as percentage of the maximal effect of recombinant human FSH) of the compounds were determined using the software program MathIQ (version 2.0, ID Business Solutions Limited). pEC50 data (pEC50 is −log EC50) are indicated at the synthesis examples.

Structure (SMILES) | EC50 [nM]
COc1cc2c(cc1-c1cccnc1)-c1c(-c3cncs3)c3c(n1CC2)C(=O)N(C(C)(C)C)CCCOC3 [Compound 8f, 9-tert-butyl-3-methoxy-2-pyridin-3-yl-15-(1,3-thiazol-5-yl)-5,6,9,10,11,12-hexahydro[1,5]oxazonino[8′,7′:4,5]pyrrolo[2,1-a]isoquinolin-8(14H)-one] | 14.1
COc1cc2c(cc1C(=O)N(C)CCO)-c1c(-c3cccs3)c3c(n1CC2)C(=O)N(C(C)(C)C)CCCC3 [Compound 26c8, 9-tert-butyl-2-(N-2-hydroxyethyl,N-methylaminocarbonyl)-3-methoxy-14-(thiophen-2-yl)-5,6,10,11,12,13-hexahydroazocino[4′,3′:4,5]pyrrolo[2,1-a]isoquinolin-8(9H)-one] | 5.37
COc1cc2c(cc1NS(C)(=O)=O)-c1c(-c3cccs3)c3c(n1CC2)C(=O)N(C(C)(C)C)CCCC3 [Compound 29a, 9-tert-butyl-3-methoxy-2-(methylsulfonamido)-14-(thiophen-2-yl)-5,6,10,11,12,13-hexahydroazocino[4′,3′:4,5]pyrrolo[2,1-a]isoquinolin-8(9H)-one] | 1.95
COc1cc2c(cc1[N+](=O)[O-])-c1c(-c3cccs3)c3c(n1CC2)C(=O)N(C(C)(C)C)CC3 [Compound 1i, 9-tert-butyl-3-methoxy-2-nitro-12-(2-thienyl)-5,6,10,11-tetrahydropyrido[4′,3′:4,5]pyrrolo[2,1-a]isoquinolin-8(9H)-one] | 100
COc1cc2c(cc1OC(C)C)-c1c(-c3cccs3)c3c(n1CC2)C(=O)N(C(C)(C)C)C3 [Compound 15f, 9-tert-butyl-2-isopropoxy-3-methoxy-11-(2-thienyl)-5,6,9,10-tetrahydro-8H-pyrrolo[3′,4′:4,5]pyrrolo[2,1-a]isoquinolin-8-one] | 617
COc1cc2c(cc1OC(C)C)-c1c(Br)c3c(n1CC2)C(=O)N(C(C)(C)C)CCOC3 [Compound 18d, 9-tert-butyl-3-methoxy-2-isopropoxy-14-bromo-5,6,10,11-tetrahydro-9H-[1,4]oxazocino[7′,6′:4,5]pyrrolo[2,1-a]isoquinolin-8(13H)-one] | 126
COc1cc2c(cc1-c1cccnc1)-c1c(-c3cccnc3)c3c(n1CC2)C(=O)N(C(C)(C)C)CCC3 [Compound 13e, 9-tert-butyl-2,13-di-(pyridin3-yl)-3-methoxy-5,6,9,10,11,12-hexahydro-8H-azepino[4′,3′:4,5]pyrrolo[2,1-a]isoquinolin-8-one] | 42.7
COc1cc2c(cc1C(=O)NCCN1CCOCC1)-c1c(-c3cccs3)c3c(n1CC2)C(=O)N(C(C)(C)C)CCCC3 [Compound 26c1, 9-tert-butyl-3-methoxy-N^2-(2-morpholinoethyl)-14-(thiophen-2-yl)-5,6,10,11,12,13-hexahydroazocino[4′,3′:4,5]pyrrolo[2,1-a]isoquinolin-8(9H)-one-2-carboxamide] | 1.78
COc1cc2c(cc1OC(C)C)-c1c(-c3cccs3)c3c(n1CC2)C(=O)N(C(C)C)CCNC3 [Compound 14e, 9-isopropyl-3-methoxy-2-isopropoxy-14-(2-thienyl)-5,6,10,11,12,13-hexahydro[1,4]diazocino[6′,7′:4,5]pyrrolo[2,1-a]isoquinolin-8(9H)-one] | 93.3
COc1cc2c(cc1-c1cccnc1)-c1c(C3=CCSCC3)c3c(n1CC2)C(=O)N(C(C)(C)C)CCCC3 [Compound 25d, 9-tert-butyl-2-(3-pyridyl)-14-(3,6-dihydro-2H-thiopyran-4-yl)-3-methoxy-5,6,10,11,12,13-hexahydroazocino[4′,3′:4,5]pyrrolo[2,1-a]isoquinolin-8(9H)-one] | 10.7
COc1cc2c(cc1-c1cccnc1)-c1c(C3=CCOCC3)c3c(n1CC2)C(=O)N(C(C)(C)C)CCCC3 [Compound 25c, 9-tert-butyl-2-(3-pyridyl)-14-(3,6-dihydro-2H-pyran-4-yl)-3-methoxy-5,6,10,11,12,13-hexahydroazocino[4′,3′:4,5]pyrrolo[2,1-a]isoquinolin-8(9H)-one] | 6.31
COc1cc2c(cc1C#N)-c1c(-c3cccs3)c3c(n1CC2)C(=O)N(C(C)(C)C)CCCC3 [Compound 20h, 9-tert-butyl-14-(thien-2-yl)-3-methoxy-5,6,10,11,12,13-hexahydroazocino[4′,3′:4,5]pyrrolo[2,1-a]isoquinolin-8(9H)-one-2-carbonitrile] | 1.78
COc1cc2c(cc1-c1cccnc1)-c1c(-c3cccs3)c3c(n1CC2)C(=O)N(C(C)(C)C)CCC3 [Compound 4g, 9-tert-butyl-2-(pyridin-3-yl)-3-methoxy-13-(2-thienyl)-5,6,9,10,11,12-hexahydro-8H-azepino[4′,3′:4,5]pyrrolo[2,1-a]isoquinolin-8-one] | 4.17
COc1cc2c(cc1N)-c1c(-c3cccs3)c3c(n1CC2)C(=O)N(C(C)(C)C)CCCC3 [Compound 20b, 9-tert-butyl-14-(thien-2-yl)-2-amino-3-methoxy-5,6,10,11,12,13-hexahydroazocino[4′,3′:4,5]pyrrolo[2,1-a]isoquinolin-8(9H)-one] | 39.8
COc1cc2c(cc1[C@H](O)[C@@H](O)CO)-c1c(-c3cccs3)c3c(n1CC2)C(=O)N(C(C)(C)C)CCCC3 [Compound 21h, (1S,2S)-1-(9-tert-butyl-14-(thien-2-yl)-3-methoxy-5,6,10,11,12,13-hexahydroazocino[4′,3′:4,5]pyrrolo[2,1-a]isoquinolin-8(9H)-on-2-yl)propane-1,2,3-triol] | 5.5
COc1cc2c(cc1-c1ncco1)-c1c(-c3cncs3)c3c(n1CC2)C(=O)N(C(C)(C)C)CCCC3 [Compound 17j, 9-tert-butyl-3-methoxy-2-(1,3-oxazol-2-yl)-14-(1,3-thiazol-5-yl)-5,6,10,11,12,13-hexahydroazocino[4′,3′:4,5]pyrrolo[2,1-a]isoquinolin-8(9H)-one] | 0.977
COc1cc2c(cc1C(=O)NCCC(O)CO)-c1c(-c3cccs3)c3c(n1CC2)C(=O)N(C(C)(C)C)CCCC3 (stereo not drawn) [Compound 26c10, 9-tert-butyl-2-(3,4-dihydroxybutylaminocarbonyl)-3-methoxy-14-(thiophen-2-yl)-5,6,10,11,12,13-hexahydroazocino[4′,3′:4,5]pyrrolo[2,1-a]isoquinolin-8(9H)-one] | 1.95
COc1cc2c(cc1C(=O)N1CCC[C@H]1CO)-c1c(-c3cccs3)c3c(n1CC2)C(=O)N(C(C)(C)C)CCCC3 [Compound 26c3, (S)-9-tert-butyl-3-methoxy-2-(2-hydroxymethyl-1-pyrrolidinylcarbonyl)-14-(thiophen-2-yl)-5,6,10,11,12,13-hexahydroazocino[4′,3′:4,5]pyrrolo[2,1-a]isoquinolin-8(9H)-one] | 27.5
COc1cc2c(cc1C(=O)NCCO)-c1c(-c3cccs3)c3c(n1CC2)C(=O)N(C(C)(C)C)CCCC3 [Compound 26c7, 9-tert-butyl-2-(2-hydroxyethylaminocarbonyl)-3-methoxy-14-(thiophen-2-yl)-5,6,10,11,12,13-hexahydroazocino[4′,3′:4,5]pyrrolo[2,1-a]isoquinolin-8(9H)-one] | 0.427
COc1cc2c(cc1NC(=O)C(C)C)-c1c(-c3cccs3)c3c(n1CC2)C(=O)N(C(C)(C)C)CCC3 [Compound 3f, 9-tert-butyl-2-isobutyramido-3-methoxy-13-(2-thienyl)-5,6,9,10,11,12-hexahydro-8H-azepino[4′,3′:4,5]pyrrolo[2,1-a]isoquinolin-8-one] | 126
COC(=O)c1cc2c(cc1OC)CCn1c3c(c(-c4cccs4)c1-2)CCCCN(C(C)(C)C)C3=O [Compound 26a, methyl 9-tert-butyl-3-methoxy-14-(thiophen-2-yl)-5,6,10,11,12,13-hexahydroazocino[4′,3′:4,5]pyrrolo[2,1-a]isoquinolin-8(9H)-one-2-carboxylate] | 1

From patent US8431564B2 (Merck Sharp & Dohme B.V., priority 2009, dated 2013)
